We go through two molecules from patent US11396548B2, “EGFR targeted therapy of neurological disorders and pain” (Sykehuset Sørlandet HF, priority 2012, dated 2022).

“Also recorded” adds a separate entry of the source. Where only a bound is given, the exact number is not on record here.

What all share (type): in vivo, human
In series [1] the test system is patients with neuropathic pain. In words: Case reports: relief of neuropathic pain by EGFR inhibitors (0-10 NRS / Brief Pain Inventory). The note with it: for Phantom-limb pain response: Case 5, panitumumab then erlotinib; for NP relief (summary of the cases): conditions where proximal and/or distal parts of peripheral nerves were affected. The protocol:
The term “in vivo” refers to the natural environment (e.g., an animal or a cell) and to processes or reaction that occur within a natural environment. […] Pain interference is assessed using the Brief Pain Inventory (BPI). BPI is used to evaluate pain interference with the following: (a) general activity, (b) mood, (c) walking ability, (d) normal work, (e) relations with other people, (f) sleep, and (g) enjoyment of life. Total score for pain interference is calculated as: (Mean score of non-missing questions)×(7/number of non-missing questions). If four or more questions are missing, the pain interference total score is set to missing.
In some cases, the patients were asked to complete a BPI short form daily, just before and during the EGFR inhibition, in order to document their neuropathic pain and thus, help us to judge their responses and guide treatment decisions.

Series [2] in a line: Case reports: concomitant analgesic / opioid requirement during EGFR inhibition.
Series [3] in a line: Case reports: side effects of EGFR inhibitors.
Series [4] can be described thus: Case reports: performance status, function, quality of life and accompanying symptoms. The note with it: Case 7, CIPN; after six to eight weeks of treatment.
The mark [5] stands for this setting: Case 2, CRPS1, after gefitinib discontinuation, 10/10 before treatment.
[6] abbreviates: Case 2, yrs, complex regional pain syndrome type 1 of the right hand, sequence cetuximab, panitumumab, cetuximab, gefitinib, erlotinib.
Where [7] appears, read: Case 14, panitumumab then erlotinib, four weeks.

Regarding panitumumab, the “Pain score 48 hours after panitumumab infusion” value in series [1] (setting [5]) is recorded as 3 /10. Besides, in series [1] (setting [5]), the “Pain score the next day after panitumumab infusion” value is given as 5 /10. Besides, the Neuropathic pain response result in series [1] (setting [6]) is “recurrence of severe pain on the very same evening as the panitumumab infusion; also recorded: completely gone again on the third day; also recorded: dramatic increase in pain just hours after infusion; also recorded: dramatic pain relief within hours”; in series [1] (Case 11, two days after panitumumab infusion and on continued treatment every 2 weeks), “completely gone; also recorded: NP has not recurred”. For the same molecule, the Phantom-limb pain response result in series [1] is given as “again effectively alleviated within one day after the second infusion”. Further, in series [1] (Case 6, panitumumab), the “Time to complete relief after first infusion” value was at most 24 h. The Pain reduction in series [1] (Case 7, CIPN, after four to six weeks (2-3 doses) of panitumumab) is given as 60-70%. The Maximum pain intensity entry in series [1] (Case 7, CIPN, two weeks after first panitumumab, only lasted a few seconds) is on record as “ten out of ten”. In addition, the “Duration of painful bursts” value in series [1] (Case 7, CIPN, two weeks after first panitumumab, several minutes before) is “five to ten seconds”. Moreover, the “Herpes Zoster related symptoms” value in series [1] (Case 8, herpetic neuralgia Th5, Day 20, panitumumab infusion, bursts 10/10 on days 16-20) is “pain had completely resolved”. For the same molecule, the “Herpes Zoster related symptoms: intensity, frequency and duration of painful bursts” value in series [1] (Case 8, Day 34) is listed as “improve (since day 21)”. For the same molecule, in series [1] (Case 8, panitumumab infusion on day 20), the “Time to complete pain relief, into the infusion” value was “approximately 10 minutes”. Also, in series [1] (Case 10, 15 days after the initial panitumumab infusion), the “Pain level at recurrence” value is given as 9 out of 10. The “Pain intensity during the following weeks” value in series [1] (Case 10, after first panitumumab 6 mg/kg) is 2-3 NRS. The molecule further returned a Reported pain reduction in series [1] (Case 12, after two panitumumab infusions) of 75%. Besides, the “Duration of analgesic effect” value in series [1] (Case 12, first panitumumab infusion) is “lasted only one week”. For the same molecule, the “Worst pain level after second infusion” value in series [1] (Case 12, second panitumumab infusion after two weeks, pregabalin reduced from 375 mg to 225 mg) is “around three”. For the same molecule, the “Peak NP in occasional episodes” value in series [1] (Case 12, three months after initial EGFR-I administration) came out at 3. For the same molecule, the “Average NP” value in series [1] (Case 12, three months after initial EGFR-I administration, treatment on hold) is on record as 2. Also, the “Reduction in pain intensity” value in series [1] (Case 13, yrs, CIPN (oxaliplatin), two days after 6 mg/kg panitumumab i.v.) is given as 20-30%. Further, the Distribution of pain result in series [1] (Case 13, two days after panitumumab, pain only located distally in feet) is “the pain in the legs had completely disappeared”. In addition, the “Pain further reduced by, of baseline levels” value in series [1] (Case 13, two weeks after the panitumumab infusion) is on record as 30-40%. Further, in series [1] (Case 14, panitumumab, amitryptiline reduced from 40 mg to 20 mg, exacerbations 10 out of 10 before), the “Worst pain in the first two weeks after the infusion” value was 6-7 out of 10. Also, the “Time to pain recurrence after panitumumab” value in series [1] (case 3) is “roughly 20 days”. Moreover, the “NP relief (summary of the cases)” value in series [1] is listed as “led to complete NP relief”. The Analgesic requirement entry in series [2] (Case 5) is “required less breakthrough pain medication”; in series [2] (Case 6, during panitumumab treatment), “no longer required analgesics”. Moreover, the Opiate requirement result in series [2] (Case 11, two days after panitumumab, 100 mg depot morphine per 24 hours before) was “no longer required opiates”. In addition, the Side effects result is recorded as “transient acne; also recorded: has otherwise not experienced any side effects” in series [3] (Case 11, panitumumab every 2 weeks) and “has not experienced any side effects to date” in series [3] (setting [7]). In addition, the Side effect result in series [3] (Case 12, panitumumab) was “skin rash grade 2-3”. Besides, the Sensibility entry in series [4] is “beginning to regain sensibility in their fingers”.
With `C#Cc1cccc(Nc2ncnc3cc(OCCOC)c(OCCOC)cc23)c1` [erlotinib], in series [1] (setting [6]), the Neuropathic pain response entry is listed as “pain-free upon conversion from panitumumab to erlotinib; also recorded: has not recurred since; also recorded: continues to be completely resolved”. Moreover, in series [1], the Phantom-limb pain response entry is reported as “reported phantom-limb pain improvement” and the “NP relief (summary of the cases)” value was “led to complete NP relief”. In addition, the “Least degree of pain” value in series [1] (Case 9, 10 days on erlotinib 150 mg tablets) was 0 /10. In addition, the Onset of effect result in series [1] (Case 9, oral erlotinib 150 mg) is “four to five days”. For the same molecule, the Pain relief entry in series [1] (Case 13, 150 mg oral erlotinib after panitumumab, over the following three weeks) is recorded as “up to 70%”. The Pain reduction in series [1] (Case 13, four weeks after starting erlotinib, week with slightly worsening pain, uses omeprazole) was 60%. Further, in series [1] (Case 14, four weeks after start of EGFR-I (panitumumab), one week after starting erlotinib, around 5 before), the Average pain was 4 out of 10. For the same molecule, the Maximum pain in series [1] (Case 14, four weeks after start of EGFR-I, one week after starting erlotinib, 10 before) is listed as 6 0-10 pain scale. Besides, the “Neuropathic pain response (BPI scores, FIG. 7 lower panel)” value in series [1] (previously EGFR-I naive patient (case 9)) is reported as “responded to upfront treatment”. The Analgesic requirement entry in series [2] (Case 5) was “opioid requirement diminished”. Also, the Side effect entry in series [3] (Case 9, erlotinib) is reported as “dry skin grade II which was transient”. In series [3] (setting [7]), the Side effects result was “has not experienced any side effects to date”.
